{"source": "patent US20230181690A1", "about": "“METHODS FOR TREATING ANEMIA USING AN ACTRIIB LIGAND TRAP AND FEDRATINIB” (Celgene Corporation, priority 2020, published 2023)", "origin": "cited, not measured here", "molecules": {"B1": {"name": "A64: Fc fusion protein having the ActRIIB extracellular sequence with an alanine at position 64 of SEQ ID NO:2 (protein)", "chain": "SGRGEAETRECIYYNANWELERTNQSGLERCEGEQDKRLHCYASWANSSGTIELVKKGCWLDDFNCYDRQECVATEENPQVYFCCCEGNFCNERFTHLPEAGGPEVTYEPPPTAPTGGGTHTCPPCPAPELLGGPSVFLFPPKPKDTLMISRTPEVTCVVVDVSHEDPEVKFNWYVDGVEVHNAKTKPREEQYNSTYRVVSVLTVLHQDWLNGKEYKCKVSNKALPVPIEKTISKAKGQPREPQVYTLPPSREEMTKNQVSLTCLVKGFYPSDIAVEWESNGQPENNYKTTPPVLDSDGSFFLYSKLTVDKSRWQQGNVFSCSVMHEALHNHYTQKSLSLSPGK", "modifications": "fusion protein comprising a soluble extracellular domain of ActRIIB (A64; SEQ ID NO 3) fused to an Fc domain"}, "B2": {"name": "R64: Fc fusion protein with an arginine at position 64 of the ActRIIB precursor amino acid sequence (protein)", "chain": "B1 chain with A46R", "modifications": "fusion protein comprising a soluble extracellular domain of ActRIIB (R64; SEQ ID NO15) fused to an Fc domain"}, "B3": {"name": "ActRIIB(20-119)-Fc: ActRIIB-Fc fusion protein containing amino acids 20-119 of SEQ ID NO:14 (SEQ ID NO:18) (protein)", "chain": "GRGEAETRECIYYNANWELERTNQSGLERCEGEQDKRLHCYASWRNSSGTIELVKKGCWLDDFNCYDRQECVATEENPQVYFCCCEGNFCNERFTHLPEA", "modifications": "human ActRIIB soluble (extracellular), processed polypeptide sequence with the C-terminal 15 aa deleted (aa 20-119 of SEQ ID NO14)"}}, "key": {"[1]": {"system": "JAK2V617F-driven myeloproliferative disease", "details": "mouse, in vivo"}, "[2]": {"system": "cell models expressing mutationally active JAK2 or FLT3"}, "[3]": {"system": "MPN-associated myelofibrosis"}, "[4]": {"system": "cell models expressing mutationally active JAK2 or FLT3", "remark": "listed apart in the source"}, "[5]": {"system": "intermediate-2 or high-risk MF", "details": "previously untreated patients with intermediate-2 or high-risk MF"}, "GDF-11": {"target": "T1, GDF-11 (Homo sapiens, UniProt O95390)", "T1 sequence (O95390 299-407)": "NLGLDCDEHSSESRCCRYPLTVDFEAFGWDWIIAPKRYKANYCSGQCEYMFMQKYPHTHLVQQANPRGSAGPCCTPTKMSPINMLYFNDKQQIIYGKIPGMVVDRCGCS"}}, "note": "Where a chain is given by its changes, count along the chain named."}
{"molecule": "Cc1cnc(Nc2ccc(OCCN3CCCC3)cc2)nc1Nc1cccc(S(=O)(=O)NC(C)(C)C)c1", "note": "[fedratinib, N-tert-butyl-3-[(5-methyl-2-{4-[2-(pyrrolidin-1-yl)ethoxy]anilino}pyrimidin-4-yl)amino]benzenesulfonamide]", "values": [{"measurement": "disease-associated symptoms", "setting": "[1]", "result": "improved disease-associated symptoms, including reduction of white blood cells, hematocrit, splenomegaly, and fibrosis"}, {"measurement": "phosphorylation of STAT3/5", "setting": "[1]", "result": "blocked phosphorylation of STAT3/5"}, {"measurement": "cell proliferation", "setting": "[2]", "result": "inhibited cell proliferation"}, {"measurement": "thrombocytopenia and anemia associated with therapy", "setting": "[3]; patients", "result": "can be associated with moderate to severe thrombocytopenia and anemia"}, {"measurement": "phosphorylation of STAT3/5 proteins", "setting": "[4]", "result": "reduced phosphorylation"}, {"measurement": "potency for JAK2 over family members JAK1, JAK3 and TYK2", "setting": "Janus Kinase 2 (JAK2)", "result": "higher potency for JAK2 over family members JAK1, JAK3 and tyrosine kinase 2 (TYK2)"}, {"measurement": "clinical efficacy", "setting": "[5]", "result": "demonstrated clinical efficacy"}]}
{"molecule": "N#CC[C@H](C1CCCC1)n1cc(-c2ncnc3[nH]ccc23)cn1", "note": "[ruxolitinib]", "values": [{"measurement": "exacerbation of anemia", "setting": "[3]; patients with MPN-associated myelofibrosis", "result": "can exacerbate the anemia"}]}
{"molecule": "B1", "values": [{"measurement": "affinity for activin", "setting": "activin", "result": "relatively low affinity"}, {"measurement": "affinity for GDF-11", "setting": "GDF-11", "result": "relatively low affinity"}]}
{"molecule": "B2", "values": [{"measurement": "affinity for activin", "setting": "activin", "result": "low nanomolar to high picomolar range"}, {"measurement": "affinity for GDF-11", "setting": "GDF-11", "result": "low nanomolar to high picomolar range"}]}
{"molecule": "B3", "values": [{"measurement": "binding to activin relative to ActRIIB(20-134)-Fc", "setting": "activin", "result": "reduced binding"}, {"measurement": "binding to GDF-11 relative to ActRIIB(20-134)-Fc", "setting": "GDF-11", "result": "reduced binding"}]}
